Laboratory results taken from US9066922B2, “Pharmaceutical composition for the treatment or prevention of diseases involving obesity, diabetes, metabolic syndrome, neuro-degenerative diseases and mitochondria dysfunction diseases” (MD BIOALPHA CO., LTD., priority 2005, dated 2015).

Tests used:
AMPK = experiment: Determination of AMPK activation in C2C12 myoblast cells (SAMS peptide, [γ-32P]ATP); format: cell-based; conditions: differentiated C2C12 myoblast cells, 5 μg/ml, compared with control (DMSO 0.5% = 1)
Experimental: Myoblast cells, C2C12, were cultured in DMEM containing 10% bovine calf serum. When a cell density reached a range of about 85% to 90%, the culture medium was replaced with a medium containing 1% bovine calf serum to induce differentiation of cells. The thus-differentiated myoblast cells were treated with samples synthesized in Examples 1 through 29 at a concentration of 5 μg/ml, and compared with a control group. Enzymatic activity of AMPK was determined as follows. Firstly, C2C12 cells were lysed to obtain protein extracts and then ammonium sulfate was added to a final concentration of 30%, thereby precipitating proteins. Protein precipitates were dissolved in a buffer (62.5 mM Hepes, pH 7.2, 62.5 mM NaCl, 62.5 mM NaF, 1.25 mM Na pyrophosphate, 1.25 mM EDTA, 1 mM DTT, 0.1 mM PMSF, and 200 μM AMP). Thereafter, 200 μM SAMS peptide (HMRSAMSGLHLVKRR: the underlined serine residue is a phosphorylation site, as an AMPK phosphorylation site of acetyl-CoA carboxylase) and [γ-32P]ATP were added thereto and reactants were reacted for 10 minutes at 30° C. This was followed by spotting of the resulting reaction solution on p81 phosphocellulose paper. The p81 paper was washed with a 3% phosphoric acid solution and radioactivity thereof was measured. For each reaction condition, reactions involving no SAMS peptide were also conducted and basic values were subtracted from the thus-observed values.

Sprague-Dawley rats [1] = experiment: Acute toxicity test, oral administration; format: in vivo; conditions: oral, 50, 100 and 200 mg/kg, observed for 2 weeks, vs control group
Sprague-Dawley rats [2] = experiment: Acute toxicity test, peritoneal administration; format: in vivo; conditions: peritoneal, 50, 100 and 200 mg/kg, observed for 2 weeks, vs control group
[3] = test system: C57BL/6JL Lep ob/Lep ob mice; experiment: Blood lipid, glucose and enzyme levels in obese mice (ob/ob); format: in vivo; design: unit not given here; conditions: 100 mg/kg for 26 days
Excerpt: (§1) 10-week-old C57BL/6JL Lep ob/Lep ob male mice having obesity characteristics and predisposition were purchased from Daehan Biolink Co., Ltd. (Chungchongbuk-do, Korea). Animals were raised in a breeding room maintained at a temperature of 23 C, 55% humidity, illumination of 300 to 500 lux, a 12-h light/dark (L/D) cycle, and ventilation of 10 to 18 times/hr. Animals were fed ad libitum pellets of Purina Rodent Laboratory Chow 5001 (purchased from Purina Mills Inc., St. Louis, Mo., USA) as a solid feed for experimental animals and tap water as drinking water. Mice were allowed to acclimate to new environment of the breeding room for two weeks and were then administered some pyrano-o-naphthoquinone and furano-o-naphthoquinone derivatives synthesized according to the present invention at doses of 100 mg/kg for 26 days. Observation was made on changes in body weight, blood glucose and dietary intake, with respect to a time course of administration. After administration was complete, Computed Tomography (CT) was performed to confirm changes in adipose tissue distribution of animals, changes in fat distribution of tissues in various organs, changes in sizes of adipocytes, and changes in glucose, lipid and enzyme levels in blood and liver.

[4] = test system: C57BL/6JL Lep ob/Lep ob mice; experiment: Weight loss effects in obese mice (ob/ob): body weight; format: in vivo; conditions: 100 mg/kg for 26 days; for change in vivo at 100 mg/kg: Mus musculus, 624 h, read-out: Increase in BW
Excerpt: as §1

| SMILES | AMPK fold (AMPK) [fold] | visually observable symptoms (Sprague-Dawley rats [1]) | visually observable symptoms (Sprague-Dawley rats [2]) | Cholesterol [3] | GOT [3] | GPT [3] | Glucose [3] | Triglyceride [3] | Final BW [4] [g] | change in vivo at 100 mg/kg [4] [%] |
| --- | --- | --- | --- | --- | --- | --- | --- | --- | --- | --- |
| CC1OC2=C(C(=O)C(=O)c3ccccc32)C1(C)C (centres unmarked) [Compound 2, Dunnione] | 1.4 | no visually observable symptoms with exception of weight loss | no visually observable symptoms with exception of weight loss | 123 | 50 | 43 | 125 | 154 | 28.7 | -46.2 |
| CC1C2=C(OC1(C)C)c1ccccc1C(=O)C2=O (centres unmarked) [Compound 3] | 3.2 | no visually observable symptoms with exception of weight loss | no visually observable symptoms with exception of weight loss | 128 | 36 | 32 | 122 | 129 | 39.7 | -27.9 |
| CC1(C)CC2=C(O1)c1ccccc1C(=O)C2=O [Compound 4] | 2.2 | no visually observable symptoms with exception of weight loss | no visually observable symptoms with exception of weight loss | 130 | 48 | 44 | 134 | 148 | 40.0 | -27.8 |
| CC1CC2=C(O1)c1ccccc1C(=O)C2=O (centres unmarked) [Compound 5] | 1.3 |  |  | 117 | 38 | 29 | 112 | 137 | 36.1 | -39.5 |
| O=C1C(=O)c2ccccc2C2=C1CCO2 [Compound 6] | 2.2 |  |  |  |  |  |  |  |  |  |
| O=C1C(=O)c2ccccc2C2=C1CCC(c1ccccc1)O2 (centres unmarked) [Compound 7] | 2.2 |  |  |  |  |  |  |  |  |  |
| CC1OC2=C(C(=O)C(=O)c3ccccc32)C1c1ccccc1 (centres unmarked) [Compound 8] | 1.9 |  |  |  |  |  |  |  |  |  |
| C=C1OC2=C(C(=O)C(=O)c3ccccc32)C1(C)C [Compound 9] | 2.6 |  |  |  |  |  |  |  |  |  |
| COC1(C)OC2=C(C(=O)C(=O)c3ccccc32)C1(C)C (centres unmarked) [Compound 10] | 1.6 |  |  |  |  |  |  |  |  |  |
| CC1(C)C=CC2=C(O1)c1ccccc1C(=O)C2=O [Compound 11] | 1.3 |  |  |  |  |  |  |  |  |  |
| C=CC1(C)CCC2=C(O1)c1ccccc1C(=O)C2=O (centres unmarked) [Compound 12] | 2.1 | no visually observable symptoms with exception of weight loss | no visually observable symptoms with exception of weight loss |  |  |  |  |  |  |  |
| CC(C)=CC1(C)CCC2=C(O1)c1ccccc1C(=O)C2=O (centres unmarked) [Compound 13] | 2.3 | no visually observable symptoms with exception of weight loss | no visually observable symptoms with exception of weight loss |  |  |  |  |  |  |  |
| CC(C)=C/C(C)=C/C1(C)CCC2=C(O1)c1ccccc1C(=O)C2=O (centres unmarked) [Compound 14] | 1.5 | no visually observable symptoms with exception of weight loss | no visually observable symptoms with exception of weight loss | 160 | 95 | 87 | 193 | 216 | 61.3 | -4.7 |
| C[C@H]1OC2=C(C(=O)C(=O)c3ccccc32)[C@@H]1C [Compound 16] | 2.5 | no visually observable symptoms with exception of weight loss | no visually observable symptoms with exception of weight loss |  |  |  |  |  |  |  |
| C[C@@H]1C2=C(O[C@@H]1C)c1ccccc1C(=O)C2=O [Compound 17] | 2.2 | no visually observable symptoms with exception of weight loss | no visually observable symptoms with exception of weight loss |  |  |  |  |  |  |  |
| CC1CCC2=C(O1)c1ccccc1C(=O)C2=O (centres unmarked) [Compound 18] | 2.3 |  |  |  |  |  |  |  |  |  |
| CCC1CC2=C(O1)c1ccccc1C(=O)C2=O (centres unmarked) [Compound 19] | 2.1 |  |  |  |  |  |  |  |  |  |
| CC1(C)CCCC2(C)OC3=C(CC12)C(=O)C(=O)c1ccccc13 (centres unmarked) [Compound 20] | 2.3 |  |  |  |  |  |  |  |  |  |
| CC1(C)CCC2=C(O1)c1cc(Cl)ccc1C(=O)C2=O [Compound 21] | 2.2 |  |  | 127 | 46 | 39 | 127 | 138 | 41.1 | -28.3 |
| Cc1ccc2c(c1)C1=C(CCC(C)(C)O1)C(=O)C2=O [Compound 22] | 1.9 |  |  | 132 | 57 | 49 | 142 | 168 | 48.7 | -16.5 |
| CCC1(C)CCC2=C(O1)c1ccccc1C(=O)C2=O (centres unmarked) [Compound 24] | 2.1 | no visually observable symptoms with exception of weight loss | no visually observable symptoms with exception of weight loss |  |  |  |  |  |  |  |
| CCC1(CC)CCC2=C(O1)c1ccccc1C(=O)C2=O [Compound 25] | 1.8 | no visually observable symptoms with exception of weight loss | no visually observable symptoms with exception of weight loss |  |  |  |  |  |  |  |
| CC1(c2ccccc2)CCC2=C(O1)c1ccccc1C(=O)C2=O (centres unmarked) [Compound 26] | 2.2 | no visually observable symptoms with exception of weight loss | no visually observable symptoms with exception of weight loss | 128 | 40 | 33 | 131 | 137 | 42.3 | -25.5 |
| O=C1C(=O)c2ccccc2C2=C1CCC1(CCCCC1)O2 [Compound 27] | 1.7 |  |  |  |  |  |  |  |  |  |
| O=C1C(=O)c2ccccc2C2=C1CCC1(CCCC1)O2 [Compound 28] | 1.7 |  |  |  |  |  |  |  |  |  |
| Cc1cc2c(o1)-c1ccccc1C(=O)C2=O [Compound 29] | 1.3 |  |  |  |  |  |  |  |  |  |
| Cc1coc2c1C(=O)C(=O)c1ccccc1-2 [Compound 30] | 1.2 |  |  |  |  |  |  |  |  |  |
| Cc1ccc2c(c1)C(=O)C(=O)c1c(C)coc1-2 [Compound 31] | 1.2 |  |  |  |  |  |  |  |  |  |
| Cc1ccc2c(c1)-c1occ(C)c1C(=O)C2=O [Compound 32] | 1.3 |  |  |  |  |  |  |  |  |  |
